The values below come from patent US20170334899A1, “AMINO-SUBSTITUTED ISOTHIAZOLES” (Bayer Pharma Aktiengesellschaft, priority 2014, published 2017).

This test concerns the target T1, human kinase Mps-1 (Homo sapiens, UniProt P33981).
T1 construct: N-terminally GST-tagged human full length recombinant Mps-1 kinase; GST (N); purchased Invitrogen, Karslruhe, Germany PV4071
T1 sequence (P33981 1-857): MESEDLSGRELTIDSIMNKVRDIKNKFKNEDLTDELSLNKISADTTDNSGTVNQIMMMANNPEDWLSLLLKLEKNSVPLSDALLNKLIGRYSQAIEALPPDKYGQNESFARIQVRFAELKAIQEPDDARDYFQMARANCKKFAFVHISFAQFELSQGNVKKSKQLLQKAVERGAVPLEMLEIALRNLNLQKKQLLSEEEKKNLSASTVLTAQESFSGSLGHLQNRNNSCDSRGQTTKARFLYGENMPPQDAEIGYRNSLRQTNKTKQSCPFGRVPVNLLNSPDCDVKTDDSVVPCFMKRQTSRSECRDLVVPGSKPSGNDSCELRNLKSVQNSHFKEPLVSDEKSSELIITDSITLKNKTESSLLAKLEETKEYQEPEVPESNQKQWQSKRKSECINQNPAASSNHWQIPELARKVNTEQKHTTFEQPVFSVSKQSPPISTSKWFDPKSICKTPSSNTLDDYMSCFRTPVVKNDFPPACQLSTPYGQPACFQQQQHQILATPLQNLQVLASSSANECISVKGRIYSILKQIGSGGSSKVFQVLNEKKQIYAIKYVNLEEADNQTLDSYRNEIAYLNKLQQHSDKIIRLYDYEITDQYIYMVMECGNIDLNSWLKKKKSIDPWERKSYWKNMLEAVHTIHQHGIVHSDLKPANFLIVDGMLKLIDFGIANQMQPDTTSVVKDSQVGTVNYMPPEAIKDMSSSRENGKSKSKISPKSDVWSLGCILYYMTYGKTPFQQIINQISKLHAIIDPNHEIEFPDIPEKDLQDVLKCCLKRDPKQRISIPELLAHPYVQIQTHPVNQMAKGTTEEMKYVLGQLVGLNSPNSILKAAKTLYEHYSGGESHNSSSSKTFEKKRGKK
Put plainly: Mps-1 kinase assay (TR-FRET). It is filed as biochemical. The conditions noted are these: Mps-1 TR-FRET kinase assay; avg; read-out: Mps1 avg (IC50 [mol/l]). Put shortly: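 Inhibition normalised between uninhibited reaction (0%) and enzyme-free wells (100%), using the blank-corrected TR-FRET 665/620 nm ratio after EDTA stop. Reaction: ~0.5 nM GST-Mps-1 full length, 10 μM ATP, 1 μM biotin-peptide, 60 min at 22 °C, after 15 min compound pre-binding, pH 7.7.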
(Time-resolved FRET reads energy transfer from a long-lived donor to a nearby acceptor.)
In the case of `Cc1nsc(Nc2cncc(C(F)(F)F)n2)c1C(=O)Nc1ccc(OC2CCNCC2)nc1` [Example 13, 3-Methyl-N-[6-(piperidin-4-yloxy)pyridin-3-yl]-5-{[6-(trifluoromethyl)pyrazin-2-yl]-amino}-1,2-thiazole-4-carboxamide], the IC50 was no less than 20 µM.

With `Cc1nsc(Nc2cncc(C(F)(F)F)n2)c1C(=O)Nc1ccc(OC2CCN(CCF)CC2)nc1` [Example 14, N-(6-{[1-(2-Fluoroethyl)piperidin-4-yl]oxy}pyridin-3-yl)-3-methyl-5-{[6-(trifluoro-methyl)pyrazin-2-yl]amino}-1,2-thiazole-4-carboxamide], the IC50 was no less than 20 µM. With `Cc1nsc(Nc2cncc(C(F)(F)F)n2)c1C(=O)Nc1ccc(OC2CCN(CC(F)(F)F)CC2)nc1` [Example 16, 3-Methyl-N-(6-{[1-(2,2,2-trifluoroethyl)piperidin-4-yl]oxy}pyridin-3-yl)-5-{[6-(trifluoromethyl)pyrazin-2-yl]amino}-1,2-thiazole-4-carboxamide], the IC50 was no less than 20 µM. The same measure for `CC(=O)N1CCC(Oc2ccc(NC(=O)c3c(C)nsc3Nc3cncc(C(F)(F)F)n3)cn2)CC1` [Example 17, N-{6-[(1-Acetylpiperidin-4-yl)oxy]pyridin-3-yl}-3-methyl-5-{[6-(trifluoromethyl)-pyrazin-2-yl]amino}-1,2-thiazole-4-carboxamide]: 18 µM. For `Cc1nsc(Nc2cnc3ccccc3n2)c1C(=O)Nc1ccc(OC2CCN(C(=O)OC(C)(C)C)CC2)nc1` [Example 18, tert-Butyl 4-{[5-({[3-methyl-5-(quinoxalin-2-ylamino)-1,2-thiazol-4-yl]carbonyl}-amino)pyridin-2-yl]oxy}piperidine-1-carboxylate], the IC50 was no less than 20 µM.

`Cc1nsc(Nc2cnc3ccccc3n2)c1C(=O)Nc1ccc(OC2CCNCC2)nc1` [Example 19, 3-Methyl-N-[6-(piperidin-4-yloxy)pyridin-3-yl]-5-(quinoxalin-2-ylamino)-1,2-thiazole-4-carboxamide]: the IC50 was no less than 20 µM. As for `Cc1nsc(Nc2cnc3ccccc3n2)c1C(=O)Nc1ccc(OC2CCN(CC(F)F)CC2)nc1` [Example 20, N-(6-{[1-(2,2-difluoroethyl)piperidin-4-yl]oxy}pyridin-3-yl)-3-methyl-5-(quinoxalin-2-ylamino)-1,2-thiazole-4-carboxamide], the IC50 is no less than 20 µM. As to `CCN(CC)CCNC(=O)c1cccc(NC(=O)c2c(C)nsc2Nc2cc(C#N)ccn2)c1` [Example 174, 5-[(4-cyanopyridin-2-yl)amino]-N-(3-{[2-(diethylamino)ethyl]carbamoyl}phenyl)-3-methyl-1,2-thiazole-4-carboxamide], the IC50 was greater than 20 µM.

On to `Cc1nsc(Nc2cc(C#N)ccn2)c1C(=O)Nc1cccc(C(=O)NC2CC2)c1` [Example 175, 5-[(4-cyanopyridin-2-yl)amino]-N-[3-(cyclopropylcarbamoyl)phenyl]-3-methyl-1,2-thiazole-4-carboxamide], for which the IC50 is greater than 20 µM. The same measure for `COC(=O)CCc1cccc(NC(=O)c2c(C)nsc2Nc2ccc(C#N)cn2)c1` [Example 176, methyl 3-{3-[({5-[(5-cyanopyridin-2-yl)amino]-3-methyl-1,2-thiazol-4-yl}carbonyl)amino]phenyl}propanoate]: greater than 20 µM.

For the molecule `Cc1nsc(Nc2cc(C#N)ccn2)c1C(=O)Nc1ccc(NC(=O)OC(C)(C)C)cc1` [Example 177, tert-butyl {4-[({5-[(4-cyanopyridin-2-yl)amino]-3-methyl-1,2-thiazol-4-yl}carbonyl)amino]phenyl}carbamate], the IC50 is greater than 20 µM. For the molecule `Cc1nsc(Nc2cnc3ccccc3n2)c1C(=O)Nc1cccc(NC(=O)OC(C)(C)C)c1` [Example 178, tert-butyl [3-({[3-methyl-5-(quinoxalin-2-ylamino)-1,2-thiazol-4-yl]carbonyl}amino)-phenyl]carbamate], the IC50 is greater than 20 µM. As to `Cc1nsc(Nc2ccc(C#N)cn2)c1C(=O)Nc1cccc(NC(=O)OC(C)(C)C)c1` [Example 179, tert-butyl {3-[({5-[(5-cyanopyridin-2-yl)amino]-3-methyl-1,2-thiazol-4-yl}carbonyl)amino]phenyl}carbamate], the IC50 is greater than 20 µM. Regarding `Cc1nsc(Nc2ccc(C#N)cn2)c1C(=O)Nc1cccc(N)c1` [Example 180, N-(3-aminophenyl)-5-[(5-cyanopyridin-2-yl)amino]-3-methyl-1,2-thiazole-4-carboxamide], the IC50 is greater than 20 µM. Turning to `Cc1nsc(Nc2cnc3ccccc3n2)c1C(=O)Nc1ccc(C(=O)OC(C)(C)C)cc1` [Example 181, tert-butyl 4-({[3-methyl-5-(quinoxalin-2-ylamino)-1,2-thiazol-4-yl]carbonyl}amino)benzoate], the IC50 is greater than 20 µM.

For `Cc1nsc(Nc2cc(C#N)ccn2)c1C(=O)Nc1ccc(C(=O)OC(C)(C)C)cc1` [Example 182, tert-butyl 4-[({5-[(4-cyanopyridin-2-yl)amino]-3-methyl-1,2-thiazol-4-yl}carbonyl)amino]benzoate], the IC50 was greater than 20 µM. With `Cc1nsc(Nc2cc(C#N)ccn2)c1C(=O)Nc1cccc(NC(=O)C(C)(C)C)c1` [Example 183, 5-[(4-cyanopyridin-2-yl)amino]-N-{3-[(2,2-dimethylpropanoyl)amino]phenyl}-3-methyl-1,2-thiazole-4-carboxamide], the IC50 was greater than 20 µM. The result for `Cc1nsc(Nc2cnccn2)c1C(=O)Nc1ccc(C(=O)OC(C)(C)C)cc1` [Example 184, tert-butyl 4-({[3-methyl-5-(pyrazin-2-ylamino)-1,2-thiazol-4-yl]carbonyl}amino)benzoate] reads greater than 20 µM. `Cc1nsc(Nc2cnc3ccccc3n2)c1C(=O)Nc1ccc(NC(=O)C(C)(C)C)cc1` [Example 185, N-{4-[(2,2-dimethylpropanoyl)amino]phenyl}-3-methyl-5-(quinoxalin-2-ylamino)-1,2-thiazole-4-carboxamide]: the IC50 was greater than 20 µM. For the molecule `Cc1nsc(Nc2cnc3ccccc3n2)c1C(=O)Nc1cccc(NC(=O)C(C)(C)C)c1` [Example 186, N-{3-[(2,2-dimethylpropanoyl)amino]phenyl}-3-methyl-5-(quinoxalin-2-ylamino)-1,2-thiazole-4-carboxamide], the IC50 was greater than 20 µM.

For `Cc1nsc(Nc2cnc3ccccc3n2)c1C(=O)Nc1ccc(C(=O)O)cc1` [Example 187, 4-({[3-methyl-5-(quinoxalin-2-ylamino)-1,2-thiazol-4-yl]carbonyl}amino)benzoic acid], the IC50 came out at 5.4 µM. Consider `Cc1nsc(Nc2cnc3ccccc3n2)c1C(=O)Nc1ccccc1S(C)(=O)=O` [Example 188, 3-methyl-N-[2-(methylsulfonyl)phenyl]-5-(quinoxalin-2-ylamino)-1,2-thiazole-4-carboxamide], for which the IC50 is greater than 20 µM. Consider `Cc1nsc(Nc2cncc(C(F)(F)F)n2)c1C(=O)Nc1ccc(OC2CCCN(C(=O)OC(C)(C)C)C2)nc1` (stereo not drawn) [Example 189, tert-butyl 3-[(5-{[(3-methyl-5-{[6-(trifluoromethyl)pyrazin-2-yl]amino}-1,2-thiazol-4-yl)carbonyl]amino}pyridin-2-yl)oxy]piperidine-1-carboxylate], for which the IC50 is greater than 20 µM. For the molecule `Cc1nsc(Nc2cncc(C(F)(F)F)n2)c1C(=O)Nc1ccc(OCCCNC(=O)OC(C)(C)C)nc1` [Example 190, tert-butyl {3-[(5-{[(3-methyl-5-{[6-(trifluoromethyl)pyrazin-2-yl]amino}-1,2-thiazoL-4-yl)carbonyl]amino}pyridin-2-yl)oxy]propyl}carbamate], the IC50 is greater than 20 µM. For the molecule `Cc1nsc(Nc2cncc(C(F)(F)F)n2)c1C(=O)Nc1ccc(OCCNC(=O)OC(C)(C)C)nc1` [Example 191, tert-butyl {2-[(5-{[(3-methyl-5-{[6-(trifluoromethyl)pyrazin-2-yl]amino}-1,2-thiazol-4-yl)carbonyl]amino}pyridin-2-yl)oxy]ethyl}carbamate], the IC50 was greater than 20 µM. As for `Cc1nsc(Nc2cnc(C(F)(F)F)cn2)c1C(=O)Nc1ccc(OCCNC(=O)OC(C)(C)C)nc1` [Example 192, tert-butyl {2-[(5-{[(3-methyl-5-{[5-(trifluoromethyl)pyrazin-2-yl]amino}-1,2-thiazol-4-yl)carbonyl]amino}pyridin-2-yl)oxy]ethyl}carbamate], the IC50 is greater than 20 µM. The result for `Cc1nsc(Nc2cncc(C(F)(F)F)n2)c1C(=O)Nc1ccc(C(=O)OC(C)(C)C)cc1` [Example 193, tert-butyl tert-butyl 4-{[(3-methyl-5-{[6-(trifluoromethyl)pyrazin-2-yl]amino}-1,2-thiazol-4-yl)carbonyl]amino}benzoate] reads greater than 20 µM.
